Data reported in PubChem BioAssay AID256 (DTP/NCI, 2004).
Values joined by “and” are separate entries in the source; they are usually repeats but may differ in a detail not shown here. Equal values may be shown once. Inconclusive results and toxic doses are left out.

Test system: CD2F1 mice, L1210 leukemia ip, survival T/C
Experiment: NCI In Vivo Anticancer Drug Screen. Data for tumor model L1210 Leukemia (intraperitoneal) in CD2F1 (CDF1) mice
Conditions: endpoint: mean survival time, higher = longer survival
Method in brief: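 Compound-dosed mice with transplantable tumor versus matched vehicle controls; endpoint ratio T/C reported.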

[1] = dose: 100.0 mg/kg/injection, schedule: Q04DX003 (ip), vehicle: saline with Tween-80
[2] = dose: 200.0 mg/kg/injection, schedule: Q04DX003 (ip), vehicle: saline with Tween-80
[3] = dose: 50.0 mg/kg/injection, schedule: Q01DX001 (ip), vehicle: other
[4] = dose: 100.0 mg/kg/injection, schedule: Q01DX009 (ip), vehicle: saline with Tween-80
[5] = dose: 200.0 mg/kg/injection, schedule: Q01DX009 (ip), vehicle: saline with Tween-80
[6] = dose: 400.0 mg/kg/injection, schedule: Q01DX009 (ip), vehicle: saline with Tween-80
[7] = dose: 400.0 mg/kg/injection, schedule: Q04DX003 (ip), vehicle: saline with Tween-80

`COc1cc2c(cc1OC)C[N+]1(C)CCc3cc(OC)c(OC)cc3C1C2` (stereo not drawn) was tested, and the T/C (dose: 5.0 mg/kg/injection, schedule: Q01DX001 (ip), vehicle: saline) was 97 % of control, the T/C (dose: 10.0 mg/kg/injection, schedule: Q01DX001 (ip), vehicle: saline) was 93 % of control and the T/C (dose: 20.0 mg/kg/injection, schedule: Q01DX001 (ip), vehicle: saline) was 103 % of control. For the same compound, the T/C (dose: 40.0 mg/kg/injection, schedule: Q01DX001 (ip), vehicle: saline) was 97 % of control.

For `CC1=C(Br)C(=O)C(C(O)(C(F)(F)F)C(F)(F)F)C(C)(C)C1` (stereo not drawn), the T/C [1] was 96 % of control and the T/C [2] was 96 % of control.

In the case of `CCCCCOC(=O)COc1ccc(F)cc1F`, the T/C (dose: 100.0 mg/kg/injection, schedule: Q04DX002 (ip), vehicle: saline with Tween-80) is reported as 101 % of control, the T/C (dose: 200.0 mg/kg/injection, schedule: Q04DX002 (ip), vehicle: saline with Tween-80) is reported as 105 % of control and the T/C (dose: 400.0 mg/kg/injection, schedule: Q04DX002 (ip), vehicle: saline with Tween-80) is reported as 90 % of control.

With `CCCC1=NC(C)(C)CO1` the T/C (dose: 100.0 mg/kg/injection, schedule: Q04DX003 (ip), vehicle: saline) was 92 % of control, the T/C (dose: 200.0 mg/kg/injection, schedule: Q04DX003 (ip), vehicle: saline) was 94 % of control and the T/C (dose: 400.0 mg/kg/injection, schedule: Q04DX003 (ip), vehicle: saline) was 105 % of control.

`O=C1C(=O)C(c2ccccc2)(c2ccccc2)c2cc(-c3ccccc3)c(-c3ccccc3)cc21` was tested, and the T/C (dose: 25.0 mg/kg/injection, schedule: Q04DX003 (ip), vehicle: saline with Tween-80) was 93 % of control, the T/C (dose: 50.0 mg/kg/injection, schedule: Q04DX003 (ip), vehicle: saline with Tween-80) was 89 % of control and the T/C [1] was 93 % of control.

In the case of `CC(=O)Nc1ncc2ccccc2c1-c1ccc(NC(=O)CCCl)cc1`, the T/C (dose: 25.0 mg/kg/injection, schedule: Q04DX003 (ip), vehicle: DMSO) is reported as 101 % of control, the T/C (dose: 50.0 mg/kg/injection, schedule: Q04DX003 (ip), vehicle: DMSO) is reported as 96 % of control and the T/C (dose: 100.0 mg/kg/injection, schedule: Q04DX003 (ip), vehicle: DMSO) is reported as 94 % of control. For the same compound, the T/C (dose: 200.0 mg/kg/injection, schedule: Q04DX003 (ip), vehicle: DMSO) was 91 % of control and the T/C (dose: 400.0 mg/kg/injection, schedule: Q04DX003 (ip), vehicle: DMSO) was 94 % of control.

For `Cc1ccc(NC(=O)N(CCCl)N=O)c(C)c1`, the T/C (dose: 4.4 mg/kg/injection, schedule: Q01DX009 (ip), vehicle: other) was 167 % of control, the T/C (dose: 6.6 mg/kg/injection, schedule: Q01DX009 (ip), vehicle: other) was 161 % of control and the T/C (dose: 33.0 mg/kg/injection, schedule: Q01DX001 (ip), vehicle: other) was 183 % of control. For the same compound, the T/C [3] was 200 % of control and the T/C (dose: 75.0 mg/kg/injection, schedule: Q01DX001 (ip), vehicle: other) was 178 % of control.

For `Cc1nc(NN)c([N+](=O)[O-])c(NN)n1`, the T/C (dose: 100.0 mg/kg/injection, schedule: Q04DX003 (ip), vehicle: Klucel (hydroxypropylcellulose) (HPC)) was 89 % of control, the T/C (dose: 200.0 mg/kg/injection, schedule: Q04DX003 (ip), vehicle: Klucel (hydroxypropylcellulose) (HPC)) was 95 % of control and the T/C (dose: 400.0 mg/kg/injection, schedule: Q04DX003 (ip), vehicle: Klucel (hydroxypropylcellulose) (HPC)) was 102 % of control.

For `O=[N+]([O-])c1ccc(N=Nc2ccc(N3CC3)c([N+](=O)[O-])c2)cc1`, the T/C (dose: 65.0 mg/kg/injection, schedule: Q01DX001 (ip), vehicle: Klucel (hydroxypropylcellulose) (HPC)) was 96 % of control, the T/C (dose: 130.0 mg/kg/injection, schedule: Q01DX001 (ip), vehicle: Klucel (hydroxypropylcellulose) (HPC)) was 88 % of control and the T/C (dose: 260.0 mg/kg/injection, schedule: Q01DX001 (ip), vehicle: Klucel (hydroxypropylcellulose) (HPC)) was 89 % of control.

`Nc1ccc(C(=O)Nc2cccc(OCc3nc(N)nc(N)c3-c3ccc(Cl)cc3)c2)cc1` was tested, and the T/C (dose: 50.0 mg/kg/injection, schedule: Q01DX001 (ip), vehicle: saline with Tween-80) was 93 % of control, the T/C (dose: 100.0 mg/kg/injection, schedule: Q01DX001 (ip), vehicle: saline with Tween-80) was 93 % of control and the T/C (dose: 200.0 mg/kg/injection, schedule: Q01DX001 (ip), vehicle: saline with Tween-80) was 93 % of control.

`O=C1c2ccccc2-c2ccc3c4ccc5c6c(ccc(c7ccc1c2c73)c64)C(=O)c1ccccc1-5` was tested, and the T/C [4] was 89 % of control, the T/C [1] was 90 % of control and the T/C [5] was 89 % of control. The T/C [2] was 87 % of control, the T/C [6] was 93 % of control and the T/C [7] was 96 % of control.

With `O=C(O)CCC(NC(=O)c1ccccc1)C(=O)O` (stereo not drawn) the T/C (dose: 100.0 mg/kg/injection, schedule: Q01DX001 (ip), vehicle: Klucel (hydroxypropylcellulose) (HPC)) was 96 % of control, the T/C (dose: 200.0 mg/kg/injection, schedule: Q01DX001 (ip), vehicle: Klucel (hydroxypropylcellulose) (HPC)) was 96 % of control and the T/C (dose: 400.0 mg/kg/injection, schedule: Q01DX001 (ip), vehicle: Klucel (hydroxypropylcellulose) (HPC)) was 100 % of control.

With `Cc1ccc(S(=O)(=O)OCC(OS(=O)(=O)c2ccc(C)cc2)C2OC(c3ccccc3)OC2C2COC(c3ccccc3)O2)cc1` (stereo not drawn) the T/C [4] was 95 % of control, the T/C [5] was 95 % of control and the T/C [6] was 95 % of control.

For `CCOC(=O)C(Br)C(Br)c1ccccc1` (stereo not drawn), the T/C (dose: 50.0 mg/kg/injection, schedule: Q01DX009 (ip), vehicle: saline) was 108 % of control, the T/C (dose: 100.0 mg/kg/injection, schedule: Q01DX009 (ip), vehicle: saline) was 103 % of control and the T/C (dose: 200.0 mg/kg/injection, schedule: Q01DX009 (ip), vehicle: saline) was 103 % of control.

`NC(=S)N/N=C/c1nccn1-c1cccc([N+](=O)[O-])c1` was tested, and the T/C (dose: 25.0 mg/kg/injection, schedule: Q04DX002 (ip), vehicle: Klucel (hydroxypropylcellulose) (HPC)) was 101 % of control, the T/C (dose: 50.0 mg/kg/injection, schedule: Q04DX002 (ip), vehicle: Klucel (hydroxypropylcellulose) (HPC)) was 96 % of control and the T/C (dose: 100.0 mg/kg/injection, schedule: Q04DX002 (ip), vehicle: Klucel (hydroxypropylcellulose) (HPC)) was 104 % of control.

For `CC1C(c2ccccc2)OP(=O)(N(CCCl)CCCl)N1C` (stereo not drawn), the T/C (dose: 1.56 mg/kg/injection, schedule: Q01DX009 (ip), vehicle: other) was 110 % of control, the T/C (dose: 3.13 mg/kg/injection, schedule: Q01DX009 (ip), vehicle: other) was 101 % of control and the T/C (dose: 6.25 mg/kg/injection, schedule: Q01DX009 (ip), vehicle: other) was 98 % of control. For the same compound, the T/C (dose: 12.5 mg/kg/injection, schedule: Q01DX009 (ip), vehicle: other) was 103 % of control and 95 % of control and 97 % of control, the T/C (dose: 12.5 mg/kg/injection, schedule: Q01DX009 (ip), vehicle: water) was 92 % of control and the T/C (dose: 25.0 mg/kg/injection, schedule: Q01DX001 (ip), vehicle: other) was 97 % of control and 100 % of control. The T/C (dose: 25.0 mg/kg/injection, schedule: Q01DX009 (ip), vehicle: other) was 104 % of control and 95 % of control, the T/C (dose: 25.0 mg/kg/injection, schedule: Q01DX009 (ip), vehicle: water) was 86 % of control and the T/C (dose: 31.3 mg/kg/injection, schedule: Q01DX001 (ip), vehicle: other) was 104 % of control [middle of 4 runs]. For the same compound, the T/C [3] was 102 % of control and 92 % of control, the T/C (dose: 50.0 mg/kg/injection, schedule: Q01DX009 (ip), vehicle: other) was 95 % of control and 100 % of control and the T/C (dose: 50.0 mg/kg/injection, schedule: Q01DX009 (ip), vehicle: water) was 100 % of control. For the same compound, the T/C (dose: 62.5 mg/kg/injection, schedule: Q01DX001 (ip), vehicle: other) was 104 % of control and 103 % of control and 101 % of control, the T/C (dose: 100.0 mg/kg/injection, schedule: Q01DX001 (ip), vehicle: other) was 103 % of control and 97 % of control and the T/C (dose: 100.0 mg/kg/injection, schedule: Q01DX009 (ip), vehicle: other) was 97 % of control and 100 % of control. For the same compound, the T/C (dose: 100.0 mg/kg/injection, schedule: Q01DX009 (ip), vehicle: water) was 88 % of control, the T/C (dose: 125.0 mg/kg/injection, schedule: Q01DX001 (ip), vehicle: other) was 95 % of control and 101 % of control and 104 % of control and the T/C (dose: 200.0 mg/kg/injection, schedule: Q01DX001 (ip), vehicle: other) was 103 % of control and 108 % of control. For the same compound, the T/C (dose: 200.0 mg/kg/injection, schedule: Q01DX009 (ip), vehicle: other) was 95 % of control and 101 % of control, the T/C (dose: 250.0 mg/kg/injection, schedule: Q01DX001 (ip), vehicle: other) was 103 % of control and 98 % of control and 97 % of control and the T/C (dose: 500.0 mg/kg/injection, schedule: Q01DX001 (ip), vehicle: other) was 107 % of control and 103 % of control and 104 % of control.

`CNc1nc(N)nc(CN2CCOCC2c2ccccn2)n1` (stereo not drawn) was tested, and the T/C (dose: 100.0 mg/kg/injection, schedule: Q04DX002 (ip), vehicle: saline) was 88 % of control, the T/C (dose: 200.0 mg/kg/injection, schedule: Q04DX002 (ip), vehicle: saline) was 114 % of control and the T/C (dose: 400.0 mg/kg/injection, schedule: Q04DX002 (ip), vehicle: saline) was 96 % of control.

For `CCC1C(=O)NC(=O)NC1=O`, the T/C [4] was 96 % of control, the T/C [1] was 98 % of control and the T/C [5] was 94 % of control. The T/C [2] was 94 % of control, the T/C [6] was 93 % of control and the T/C [7] was 96 % of control.

With `N#CCCN1C(=O)CCC1=O` the T/C [4] was 97 % of control, the T/C [1] was 95 % of control and the T/C [5] was 95 % of control. The T/C [2] was 97 % of control, the T/C [6] was 92 % of control and the T/C [7] was 95 % of control.
